PubChem BioAssay (NCI)
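Tested at 5 concentrations; 48 h exposure; 96-well plates; endpoints linearly interpolated, else capped at highest concentration. Abbreviation: GI50, concentration required for 50% inhibition of growth. At the TGI there is no net growth.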

Columns and labels:
Assay in all cases: NCI tumour cell line growth inhibition, 48 h
786-0 renal = tested on: 786-0 renal
A498 renal = tested on: A498 renal
A549 NSCLC = tested on: A549 NSCLC
ACHN renal = tested on: ACHN renal
BT-549 breast = tested on: BT-549 breast
CAKI-1 renal = tested on: CAKI-1 renal
CCRF-CEM leukemia = tested on: CCRF-CEM leukemia
COLO 205 colon = tested on: COLO 205 colon
DU-145 prostate = tested on: DU-145 prostate
EKVX NSCLC = tested on: EKVX NSCLC
HCC-2998 colon = tested on: HCC-2998 colon
HCT-116 colon = tested on: HCT-116 colon
HCT-15 colon = tested on: HCT-15 colon
HL-60(TB) leukemia = tested on: HL-60(TB) leukemia
HOP-62 NSCLC = tested on: HOP-62 NSCLC
HOP-92 NSCLC = tested on: HOP-92 NSCLC
HS 578T breast = tested on: HS 578T breast
HT29 colon = tested on: HT29 colon
IGROV1 ovarian = tested on: IGROV1 ovarian
K-562 leukemia = tested on: K-562 leukemia
KM12 colon = tested on: KM12 colon
LOX IMVI melanoma = tested on: LOX IMVI melanoma
M14 melanoma = tested on: M14 melanoma
MALME-3M melanoma = tested on: MALME-3M melanoma
MCF7 breast = tested on: MCF7 breast
MDA-MB-231 breast = tested on: MDA-MB-231 breast
MDA-MB-435 = tested on: MDA-MB-435
MOLT-4 leukemia = tested on: MOLT-4 leukemia
NCI-H226 lung = tested on: NCI-H226 lung
NCI-H23 lung = tested on: NCI-H23 lung
NCI-H460 lung = tested on: NCI-H460 lung
NCI-H522 lung = tested on: NCI-H522 lung
NCI/ADR-RES ovarian = tested on: NCI/ADR-RES ovarian
OVCAR-3 ovarian = tested on: OVCAR-3 ovarian
OVCAR-4 ovarian = tested on: OVCAR-4 ovarian
OVCAR-5 ovarian = tested on: OVCAR-5 ovarian
OVCAR-8 ovarian = tested on: OVCAR-8 ovarian
PC-3 prostate = tested on: PC-3 prostate
RPMI-8226 leukemia = tested on: RPMI-8226 leukemia
RXF 393 renal = tested on: RXF 393 renal
SF-268 CNS = tested on: SF-268 CNS
SF-295 CNS = tested on: SF-295 CNS
SF-539 CNS = tested on: SF-539 CNS
SK-MEL-2 melanoma = tested on: SK-MEL-2 melanoma
SK-MEL-28 melanoma = tested on: SK-MEL-28 melanoma
SK-MEL-5 melanoma = tested on: SK-MEL-5 melanoma
SK-OV-3 ovarian = tested on: SK-OV-3 ovarian
SN12C renal = tested on: SN12C renal
SNB-19 CNS = tested on: SNB-19 CNS
SNB-75 CNS = tested on: SNB-75 CNS
SR leukemia = tested on: SR leukemia
SW-620 colon = tested on: SW-620 colon
T-47D breast = tested on: T-47D breast
TK-10 renal = tested on: TK-10 renal
U251 CNS = tested on: U251 CNS
UACC-257 melanoma = tested on: UACC-257 melanoma
UACC-62 melanoma = tested on: UACC-62 melanoma
UO-31 renal = tested on: UO-31 renal

Cc1cc(I)cc(CN(C)CCN2CCCC2)c1O
GI50 (786-0 renal): 21.1 µM
TGI (786-0 renal): 59.8 µM
GI50 (A498 renal): 32.7 µM
TGI (A498 renal): 67.2 µM
GI50 (A549 NSCLC): 37.9 µM
TGI (A549 NSCLC): > 100 µM
GI50 (ACHN renal): 25.7 µM
TGI (ACHN renal): > 84.4 µM
GI50 (BT-549 breast): 18.7 µM
TGI (BT-549 breast): 48.8 µM
GI50 (CAKI-1 renal): 29.6 µM
TGI (CAKI-1 renal): > 93.3 µM
GI50 (CCRF-CEM leukemia): 22.3 µM
TGI (CCRF-CEM leukemia): 86 µM
GI50 (COLO 205 colon): 19 µM
TGI (COLO 205 colon): 40.2 µM
GI50 (DU-145 prostate): 32.3 µM
TGI (DU-145 prostate): > 100 µM
GI50 (EKVX NSCLC): 41.2 µM
TGI (EKVX NSCLC): > 100 µM
GI50 (HCC-2998 colon): 16 µM
TGI (HCC-2998 colon): 35.9 µM
GI50 (HCT-116 colon): 18.3 µM
TGI (HCT-116 colon): > 88.1 µM
GI50 (HCT-15 colon): 24.4 µM
TGI (HCT-15 colon): 73.7 µM
GI50 (HL-60(TB) leukemia): 10.9 µM
TGI (HL-60(TB) leukemia): 34.2 µM
GI50 (HOP-62 NSCLC): 24.1 µM
TGI (HOP-62 NSCLC): 87.5 µM
GI50 (HOP-92 NSCLC): 16.8 µM
TGI (HOP-92 NSCLC): 68.1 µM
GI50 (HS 578T breast): 31.6 µM
TGI (HS 578T breast): 67.1 µM
GI50 (HT29 colon): 17.3 µM
TGI (HT29 colon): 35.5 µM
GI50 (IGROV1 ovarian): 20.9 µM
TGI (IGROV1 ovarian): 53.8 µM
GI50 (K-562 leukemia): 8.53 µM
TGI (K-562 leukemia): 26.4 µM
GI50 (KM12 colon): 32.8 µM
TGI (KM12 colon): 81.3 µM
GI50 (LOX IMVI melanoma): 17.8 µM
TGI (LOX IMVI melanoma): 35.2 µM
GI50 (M14 melanoma): 15.8 µM
TGI (M14 melanoma): 34.8 µM
GI50 (MALME-3M melanoma): 24.3 µM
TGI (MALME-3M melanoma): 44.7 µM
GI50 (MCF7 breast): 24.3 µM
TGI (MCF7 breast): 53.7 µM
GI50 (MDA-MB-231 breast): 22 µM
TGI (MDA-MB-231 breast): 67.3 µM
GI50 (MDA-MB-435): 18.3 µM
TGI (MDA-MB-435): 42.4 µM
GI50 (MOLT-4 leukemia): 3.35 µM
TGI (MOLT-4 leukemia): 21 µM
GI50 (NCI-H226 lung): 47.9 µM
TGI (NCI-H226 lung): > 100 µM
GI50 (NCI-H23 lung): 39 µM
TGI (NCI-H23 lung): > 100 µM
GI50 (NCI-H460 lung): 28.3 µM
TGI (NCI-H460 lung): 85.4 µM
GI50 (NCI-H522 lung): 19.9 µM
TGI (NCI-H522 lung): 43.4 µM
GI50 (NCI/ADR-RES ovarian): 30.1 µM
TGI (NCI/ADR-RES ovarian): > 100 µM
GI50 (OVCAR-3 ovarian): 38.2 µM
TGI (OVCAR-3 ovarian): > 100 µM
GI50 (OVCAR-4 ovarian): 38.7 µM
TGI (OVCAR-4 ovarian): > 100 µM
GI50 (OVCAR-5 ovarian): 32.8 µM
TGI (OVCAR-5 ovarian): > 93.6 µM
GI50 (OVCAR-8 ovarian): 46.7 µM
TGI (OVCAR-8 ovarian): > 100 µM
GI50 (PC-3 prostate): 28.2 µM
TGI (PC-3 prostate): > 100 µM
GI50 (RPMI-8226 leukemia): 19.2 µM
TGI (RPMI-8226 leukemia): 46.2 µM
GI50 (RXF 393 renal): 20.7 µM
TGI (RXF 393 renal): 63.6 µM
GI50 (SF-268 CNS): 32.4 µM
TGI (SF-268 CNS): > 88.2 µM
GI50 (SF-295 CNS): 13.1 µM
TGI (SF-295 CNS): 36.6 µM
GI50 (SF-539 CNS): 21 µM
TGI (SF-539 CNS): 53.3 µM
GI50 (SK-MEL-2 melanoma): 25.6 µM
TGI (SK-MEL-2 melanoma): 63.1 µM
GI50 (SK-MEL-28 melanoma): 17.7 µM
TGI (SK-MEL-28 melanoma): 35.4 µM
GI50 (SK-MEL-5 melanoma): 20.2 µM
TGI (SK-MEL-5 melanoma): 34.8 µM
GI50 (SK-OV-3 ovarian): 37.9 µM
TGI (SK-OV-3 ovarian): > 100 µM
GI50 (SN12C renal): 41.3 µM
TGI (SN12C renal): > 100 µM
GI50 (SNB-19 CNS): 34 µM
TGI (SNB-19 CNS): > 100 µM
GI50 (SNB-75 CNS): 17.5 µM
TGI (SNB-75 CNS): 47.2 µM
GI50 (SR leukemia): 1790 nM
TGI (SR leukemia): 5.84 µM
GI50 (SW-620 colon): 23.2 µM
TGI (SW-620 colon): 60 µM
GI50 (T-47D breast): 21.5 µM
TGI (T-47D breast): 76 µM
GI50 (TK-10 renal): 18.6 µM
TGI (TK-10 renal): 39.3 µM
GI50 (U251 CNS): 31.5 µM
TGI (U251 CNS): > 95.8 µM
GI50 (UACC-257 melanoma): 32.2 µM
TGI (UACC-257 melanoma): 51.4 µM
GI50 (UACC-62 melanoma): 17.2 µM
TGI (UACC-62 melanoma): 33.2 µM
GI50 (UO-31 renal): 28.7 µM
TGI (UO-31 renal): > 88.9 µM
